{"source": "patent US20150064724A1", "about": "“BIOMARKERS FOR PROGNOSES OF PULMONARY DISEASES” (University of Pittsburgh - of the Commonwealth System of …, priority 2009, published 2015)", "system": "CD4+CD28null T cells from lung transplant recipients with BOS", "test": "Inhibition of proliferation by cyclosporine A (BrdU incorporation, flow cytometry)", "assay_type": "cell-based, human", "settings": "preliminary findings, n=2 subjects; compared with CD4+CD28+ cells", "experimental": "Segregated CD28+ and CD28null CD4 T-cell subpopulations were individually cultured in duplicate wells coated with anti-CD3 monoclonal antibody (OKT3) (see above). Autologous nurse cells, positively selected during the initial CD4 T-cell isolations (see above) were added in a 3:1 nurse cell:CD4 T-cell ratio. In order to eliminate potential confounding by CD4dim monocytes, all CD4+ cells were depleted from the nurse cells (<<1% residual), prior to their use in cultures, by positive selection with anti-CD4-coated magnetic beads (Invitrogen, Carlsbad, Calif.). Cyclosporine (Novartis, East Hanover, N.J.) to a final concentration of 100 ng/ml was added to half the wells. Proliferation within the respective CD4 subpopulations were measured by bromodeoxyuridine (BrdU) incorporation, using reagents and methods supplied in a kit (BD Pharmingen). In brief, BrdU in a final concentration of 10 μM was added to cultures two days prior to their harvests. After 5±1 days of culture, cells were harvested from wells and stained with anti-CD4, fixed and permeabilized, and then incubated with anti-BrdU and 7-amino-actinomycin (7-AAD). The proportion of proliferating CD4+ T cells (BrdU+) among the viable cells (≧diploid DNA content) was determined by flow cytometry."}
{"smiles": "C=CC[C@@H]1/C=C(\\C)C[C@H](C)C[C@H](OC)[C@H]2O[C@@](O)(C(=O)C(=O)N3CCCC[C@H]3C(=O)O[C@H](/C(C)=C/[C@@H]3CC[C@@H](O)[C@H](OC)C3)[C@H](C)[C@@H](O)CC1=O)[C@H](C)C[C@@H]2OC", "note": "[tacrolimus]", "values": [{"measurement": "resistance of CD4+CD28null T cells to the drug", "result": "relatively resistant"}]}
